A value given as a limit tells only on which side of the number the result lay.

These results are taken from patent US10738056B2 (Aduro BioTech, Inc., priority 2017, dated 2020).

The subject of assay [1] is RANTES/CCL5 secretion by Trex1-KO BMM. Description: Inhibition of RANTES/CCL5 secretion by Trex1-KO bone marrow-derived macrophages. The following applies: RANTES secretion. Further details: key to BMM IC50 R (RANTES): A: an IC50 value less than 5 μM; B: an IC50 value between 5 and 20 μM; where an IC50 value could not be calculated from the data. It is filed as cell-based, mice. Here is the method: (§1) A cellular assay can be used to asses the compounds of the invention for their ability to inhibit cytokine production. Bone marrow macrophages harvested from mice can be used to determine response as a function of compound concentration.
(§2) The inhibition of secreted cytokine was measured in bone marrow-derived macrophages (BMMs) from diseased mice to evaluate the potency of compounds of the invention as described herein. […] To derive bone marrow macrophages, marrow extracted from the femurs and tibias were harvested from Trex1-KO mice was cultured in growth media supplemented with macrophage colony-stimulating factor (M-CSF). Differentiated BMM were harvested and frozen for subsequent experimentation. For treatment with compound C1089 (see Example 13), a frozen stock of Trex1-KO BMM was thawed and 1×10^5 cells were plated in 96 well format. BMMs were treated with a dilution series of C1089 and incubated overnight at 37° C. 5% CO2, at which point cellular supernatants were harvested and stored at −80° C. for subsequent analysis. The media used for this dilution series was without FBS. Remaining cells were evaluated for viability using Cell Titer Glo 2.0 kit according to the manufacturer instructions. BMM supernatants were evaluated for the secreted cytokine […] (RANTES/CCL5) or for secreted cytokine monocyte chemoattractant protein 1 (MCP-1/CCL2) using cytometric bead array mouse Flex Set kits (BD Biosciences). Cytokine concentration was calculated from a standard curve and normalized to vehicle (DMSO) treated cells.

Assay [2] addresses Human cGAS amino acids 155-522 (Homo sapiens (Human), UniProt Q8N884). Description: cGAS biochemical activity assay (ATP remaining, Kinase-Glo Max luminescence). The following applies: human cGAS 155-522, ATP remaining (Kinase-Glo Max); read-out: cGAS IC50.
In assay [3] the test system is MCP-1/CCL2 secretion by Trex1-KO BMM. Description: Inhibition of MCP-1/CCL2 secretion by Trex1-KO bone marrow-derived macrophages. It counts as cell-based, mice. The arrangement: key to BMM IC50 M (MCP-1): A: an IC50 value less than 5 μM; B: an IC50 value between 5 and 20 μM; where an IC50 value could not be calculated from the data. The following applies: MCP-1 secretion. Here is the method: as §1, §2

Assay [4] concerns cGAS/STING pathway in THP1 cells. Put plainly: THP1 cell-based cGAS/STING pathway activity assay (IRF-3-linked luciferase reporter). The following applies: Homo sapiens, THP-1. In outline: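 THP1 cells carrying an IRF-3-driven luciferase reporter were read across a range of compound concentrations, and IC50 values were derived from these concentration responses; the assay upper limit was 100 μM.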

Chain of Human cGAS amino acids 155-522 (Q8N884 157-522): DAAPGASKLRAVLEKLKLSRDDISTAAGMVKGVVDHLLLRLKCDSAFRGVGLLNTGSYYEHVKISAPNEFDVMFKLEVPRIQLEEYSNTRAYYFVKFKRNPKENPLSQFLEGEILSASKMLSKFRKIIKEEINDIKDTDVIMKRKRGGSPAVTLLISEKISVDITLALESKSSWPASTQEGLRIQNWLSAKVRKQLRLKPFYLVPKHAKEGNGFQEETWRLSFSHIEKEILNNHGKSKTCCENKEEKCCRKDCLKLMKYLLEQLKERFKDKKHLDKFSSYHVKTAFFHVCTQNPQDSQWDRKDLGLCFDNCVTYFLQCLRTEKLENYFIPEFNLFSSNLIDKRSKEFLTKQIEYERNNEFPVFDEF

As for `CCOC(=O)Cc1[nH]c2c(-c3ccccc3)c(C(F)(F)F)nn2c(=O)c1-c1nc2c(OC)cccc2o1` [Compound C1140, ethyl 2-(6-(4-methoxybenzo[d]oxazol-2-yl)-7-oxo-3-phenyl-2-(trifluoromethyl)-4,7-dihydropyrazolo[1,5-a]pyrimidin-5-yl)acetate], the “BMM IC50 R (RANTES)” value in assay [1] was “C”. The IC50 in assay [2] is 20 to 250 µM. The “BMM IC50 M (MCP-1)” value in assay [3] is reported as “C”.

Regarding `COCc1[nH]c2c(-c3ccccc3)c(C(F)(F)F)nn2c(=O)c1-c1nc2c(OC)cccc2o1` [Compound C1056, 6-(4-methoxybenzo[d]oxazol-2-yl)-5-(methoxymethyl)-3-phenyl-2-(trifluoromethyl)pyrazolo[1,5-a]pyrimidin-7(4H)-one], the IC50 in assay [4] and in assay [2] was less than 20 µM in each case. Moreover, the “BMM IC50 M (MCP-1)” value in assay [3] was “C”.

Take `Cc1[nH]c2c(-c3ccccc3)c(C(F)(F)F)nn2c(=O)c1C(=O)Nc1ccccc1NS(=O)(=O)c1ccccc1` [Compound A1059, 5-methyl-7-oxo-3-phenyl-N-(2-(phenylsulfonamido)phenyl)-2-(trifluoromethyl)-4,7-dihydropyrazolo[1,5-a]pyrimidine-6-carboxamide]: the IC50 in assay [4] and in assay [2] was less than 20 µM throughout. In addition, in assay [3], the “BMM IC50 M (MCP-1)” value is “C”.

As for `COc1ccccc1NC(=O)c1c(C)[nH]c2c(C3CCCC3)c(C(F)(F)F)nn2c1=O` [Compound A1052, 3-cyclopentyl-N-(2-methoxyphenyl)-5-methyl-7-oxo-2-(trifluoromethyl)-4,7-dihydropyrazolo[1,5-a]pyrimidine-6-carboxamide], the IC50 in assay [2] lay in the range of 20 to 250 µM. Besides, in assay [3], the “BMM IC50 M (MCP-1)” value is given as “C”.

With `COc1cccc2oc(-c3c(C)[nH]c4c(-c5ccccc5)c(C(F)(F)F)nn4c3=O)nc12` [Compound C1014, 6-(4-methoxybenzo[d]oxazol-2-yl)-5-methyl-3-phenyl-2-(trifluoromethyl)pyrazolo[1,5-a]pyrimidin-7(4H)-one], the IC50 in assay [4] and in assay [2] was less than 20 µM throughout. In addition, the “BMM IC50 M (MCP-1)” value in assay [3] is recorded as “C”.

Take `Cc1[nH]c2c(-c3ccccc3)c(C(F)(F)F)nn2c(=O)c1-c1nc2cccc(N)c2[nH]1` [Compound C1008, 6-(7-amino-1H-benzo[d]imidazol-2-yl)-5-methyl-3-phenyl-2-(trifluoromethyl)pyrazolo[1,5-a]pyrimidin-7(4H)-one]: the IC50 in assay [4] is greater than 100 µM; in assay [2], 20 to 250 µM. Also, the “BMM IC50 M (MCP-1)” value in assay [3] was “C”.

Regarding `Cc1[nH]c2c(-c3ccccc3)c(C(F)(F)F)nn2c(=O)c1-c1nc2c([S+](C)[O-])cccc2o1` (centres unmarked) [Compound C1097, 5-methyl-6-(4-(methylsulfinyl)benzo[d]oxazol-2-yl)-3-phenyl-2-(trifluoromethyl)pyrazolo[1,5-a]pyrimidin-7(4H)-one], the values for the IC50 in assay [4] and in assay [2] were greater than 100 µM and less than 20 µM, respectively.

Turning to `Cc1[nH]c2c(C(C)C)c(C(F)(F)F)nn2c(=O)c1-c1ccccc1` [Compound C1269, 3-isopropyl-5-methyl-6-phenyl-2-(trifluoromethyl)pyrazolo[1,5-a]pyrimidin-7(4H)-one], the IC50 in assay [4] was 20 to 100 µM; in assay [2], greater than 250 µM.

Turning to `Cc1[nH]c2c(-c3ccccc3)c(C(F)(F)F)nn2c(=O)c1-c1nnc(-c2ccco2)o1` [Compound D1007, 6-(5-(furan-2-yl)-1,3,4-oxadiazol-2-yl)-5-methyl-3-phenyl-2-(trifluoromethyl)pyrazolo[1,5-a]pyrimidin-7(4H)-one], the IC50 in assay [4] was 20 to 100 µM; in assay [2] it was greater than 250 µM.

For the molecule `COc1ccc(C#N)c2oc(-c3c(C)[nH]c4c(-c5ccccc5)c(C(F)(F)F)nn4c3=O)nc12` [Compound C1100, 4-methoxy-2-(5-methyl-7-oxo-3-phenyl-2-(trifluoromethyl)-4,7-dihydropyrazolo[1,5-a]pyrimidin-6-yl)benzo[d]oxazole-7-carbonitrile], the IC50 is 20 to 100 µM in assay [4] and less than 20 µM in assay [2].

`CC(=O)N1CCCC(c2nnc(-c3c(C)[nH]c4c(-c5ccccc5)c(C(F)(F)F)nn4c3=O)o2)C1` (centres unmarked) [Compound D1041, 6-(5-(1-acetylpiperidin-3-yl)-1,3,4-oxadiazol-2-yl)-5-methyl-3-phenyl-2-(trifluoromethyl)pyrazolo[1,5-a]pyrimidin-7(4H)-one]: the results for the IC50 in assay [4] and in assay [2] were greater than 100 µM and 20 to 250 µM, respectively.

Regarding `COc1cccc2oc(-c3c(C(=O)O)[nH]c4c(-c5ccccc5)c(C#N)nn4c3=O)nc12` [Compound C1249, 2-cyano-6-(4-methoxybenzo[d]oxazol-2-yl)-7-oxo-3-phenyl-4,7-dihydropyrazolo[1,5-a]pyrimidine-5-carboxylic acid], the results for the IC50 in assay [4] and in assay [2] were greater than 100 µM and less than 20 µM, respectively.

For the molecule `Cc1[nH]c2c(-c3ccccc3)c(C(F)(F)F)nn2c(=O)c1-c1nnc(C2(C)CCCC2)o1` [Compound D1023, 5-methyl-6-(5-(1-methylcyclopentyl)-1,3,4-oxadiazol-2-yl)-3-phenyl-2-(trifluoromethyl)pyrazolo[1,5-a]pyrimidin-7(4H)-one], the figures for the IC50 in assay [4] and in assay [2] were greater than 100 µM and less than 20 µM, respectively.

On to `Cc1[nH]c2c(-c3ccccc3)c(C(F)(F)F)nn2c(=O)c1C1=N[C@@H](C(=O)O)[C@H](C)O1` [Compound C1213, (4R,5S)-5-methyl-2-(5-methyl-7-oxo-3-phenyl-2-(trifluoromethyl)-4,7-dihydropyrazolo[1,5-a]pyrimidin-6-yl)-4,5-dihydrooxazole-4-carboxylic acid], for which the IC50 is 20 to 100 µM in assay [4] and less than 20 µM in assay [2].

For the molecule `COc1cccc2oc(-c3c(C[S+](C)[O-])[nH]c4c(-c5ccccc5)c(C(F)(F)F)nn4c3=O)nc12` (centres unmarked) [Compound C1137, 6-(4-methoxybenzo[d]oxazol-2-yl)-5-((methylsulfinyl)methyl)-3-phenyl-2-(trifluoromethyl)pyrazolo[1,5-a]pyrimidin-7(4H)-one], the IC50 in assay [4] is greater than 100 µM; in assay [2], less than 20 µM.

As for `COc1nc(N)cc2oc(-c3c(C)[nH]c4c(-c5ccccc5)c(C#N)nn4c3=O)nc12` [Compound C1218, 6-(6-amino-4-methoxyoxazolo[4,5-c]pyridin-2-yl)-5-methyl-7-oxo-3-phenyl-4,7-dihydropyrazolo[1,5-a]pyrimidine-2-carbonitrile], the figures for the IC50 in assay [4] and in assay [2] were greater than 100 µM and less than 20 µM, respectively.

Consider `Cc1[nH]c2c(-c3ccccc3)c(C(F)(F)F)nn2c(=O)c1-c1nnc(-c2nccc(O)n2)o1` [Compound D1078, 6-(5-(4-hydroxypyrimidin-2-yl)-1,3,4-oxadiazol-2-yl)-5-methyl-3-phenyl-2-(trifluoromethyl)pyrazolo[1,5-a]pyrimidin-7(4H)-one], for which the values for the IC50 in assay [4] and in assay [2] were greater than 100 µM and less than 20 µM, respectively.

In the case of `COc1cccc2oc(-c3c(-c4conc4C)[nH]c4c(-c5ccccc5)c(C(F)(F)F)nn4c3=O)nc12` [Compound C1253, 6-(4-methoxybenzo[d]oxazol-2-yl)-5-(3-methylisoxazol-4-yl)-3-phenyl-2-(trifluoromethyl)pyrazolo[1,5-a]pyrimidin-7(4H)-one], the IC50 is 20 to 100 µM in assay [4] and less than 20 µM in assay [2].
